Structures are written as SMILES.

For experiment [1], the system named is APP/PS1 mice. The experiment in a line: Amyloid-β deposition in brain of APP/PS1 mice (thioflavin S staining, Aβ40 and Aβ42 immunofluorescence). Particulars: 100 mg/kg/day via drinking water; for Aβ40 deposition / Aβ42 deposition: brain tissue immunofluorescence; for Aβ40 deposition / Aβ42 deposition / fibrillary Aβ deposition (thioflavin S): versus APP/PS1 mice; for fibrillary Aβ deposition (thioflavin S): cerebral cortex and hippocampus. The format is in vivo, mouse. The text has this: IACUC (Kyungpook National University Institutional Animal Care and Use Committee) approved the present mouse experiment. A transgenic mouse line overexpressing APPswe (hAPP695swe) or PS1 (presenilin-1M146V) was used based on C57BL/6 mouse (Charles River, UK) (hereinafter, APP mouse: APPswe-overexpressing mouse, PS1 mouse: presenilin-1M146V overexpressing mouse; GlaxoSmithKline).
(§1) To confirm the therapeutic effect of the novel ASM inhibitory compounds, the novel ASM inhibitory compound or AMI were fed via drinking water at a dose of 100 mg/kg/day to mice at 5.5 months of age. Three months after the feeding, behavioral analysis on the mice was performed, followed by sampling of mouse brain tissues (FIG. 3).
After fixing the cerebrum and hippocampus of the test mice, 0.5% thioflavin S (Sigma-Aldrich), anti-20G10 antibodies (Mouse, 1:1000) against Aβ, 42 and anti-G30 antibodies (rabbit, 1:1000) against Aβ, 40, anti-GFAP antibodies (rabbit, 1:500, DAKO) were cultured together. The above sites were analyzed using a laser scanning confocal microscope equipped with Fluoview SV1000 imaging software (Olympus FV1000, Japan) or an Olympus BX51 microscope. Percentage of area of stained area to total tissue area was quantified and analyzed using Metamorph software (Molecular Devices).
In order to confirm the effect of the novel ASM inhibitory compound of the Chemical Formula 2 on the lesion of Alzheimer's disease, the ASM inhibitory compound of the Chemical Formula 2 and AMI were administered orally for four months, respectively, as shown in FIG. 3.
To begin with, the profile of Aβ of Alzheimer's disease was identified. First, according to known methods in the art, the cerebral cortex and hippocampus of the mice were stained with thioflavin S (ThioS), confirming the fibrillary amyloid-β deposition. In addition, amyloid-β deposition was confirmed by carrying out the Aβ40 and Aβ42 immunofluorescence.

The subject of experiment [2] is APP/PS1 mice. Description: Fear conditioning test in APP/PS1 mice. The format is in vivo, mouse. Particulars: 100 mg/kg/day via drinking water. How it is done: as §1
Morris water maze (MWM) and fear conditioning experiments were conducted to identify potential effects on learning and memory. For MWM, the mice were learned the task four times a day for 10 days, followed by the removal of the platform at the 11th day and subsequently a probe trial. On the first day of the fear conditioning, the mice were placed in the conditioning chamber and subjected to sound stimulation (10 kHz, 70 dB) and electrical stimulation (0.3 mA, 1s). On the second day, their memory was checked without stimulation in the same conditioning chamber as on the first day. On the third day, memory tests were conducted for fear when only sound stimulation was given in another conditioning chamber. Open field tests and dark & light tests were conducted to assess activity and anxiety. In the open field test, the mice were placed in a square box for 10 minutes to measure their overall activity and time spent wandering the wall and center. […]

Experiment [3] addresses T1, ASM (acid sphingomyelinase) (Homo sapiens, UniProt P17405).
T1 construct: fibroblasts (PS1 fibroblasts) derived from Alzheimer's disease patients, followed by the measurement of the change of ASM activity; host or cells: human fibroblast cell lines (PS1, from Alzheimer's disease patients)
T1 sequence (P17405 47-631): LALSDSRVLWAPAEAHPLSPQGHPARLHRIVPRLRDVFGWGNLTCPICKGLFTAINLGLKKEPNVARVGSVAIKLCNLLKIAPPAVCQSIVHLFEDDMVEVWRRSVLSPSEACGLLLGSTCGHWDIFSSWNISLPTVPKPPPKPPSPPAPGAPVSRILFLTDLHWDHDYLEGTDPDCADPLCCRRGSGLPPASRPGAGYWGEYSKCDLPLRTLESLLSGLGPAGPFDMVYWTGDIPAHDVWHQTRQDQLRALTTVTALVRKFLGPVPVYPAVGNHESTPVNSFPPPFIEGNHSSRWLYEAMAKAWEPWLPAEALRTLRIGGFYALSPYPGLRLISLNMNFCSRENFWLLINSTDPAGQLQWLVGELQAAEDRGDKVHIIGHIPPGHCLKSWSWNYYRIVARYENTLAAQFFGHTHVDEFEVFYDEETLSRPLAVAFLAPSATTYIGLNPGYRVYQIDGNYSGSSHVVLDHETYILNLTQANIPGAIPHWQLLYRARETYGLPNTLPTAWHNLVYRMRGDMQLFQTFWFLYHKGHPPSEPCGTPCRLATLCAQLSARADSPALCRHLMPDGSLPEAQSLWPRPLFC
Description: ASM activity in fibroblasts derived from Alzheimer's disease patients (PS1 fibroblasts). The format is cell-based. Also on record: dose or concentration left out as unconfirmed. Particulars: for change of ASM activity: PS1 fibroblasts with increased ASM activity, versus untreated PS1 fibroblasts. The protocol: Human fibroblast cell lines (normal and PS1) were obtained from Coriell Institute and cultured in DMEM containing 15% FBS under the condition of 5% CO2 at 37° C. Subsequently, the cell lines were treated with the ASM inhibitory compound of the Chemical Formula 1, amitriptyline (AMI) and FTY720, followed by measuring the change of ASM activity. The concentration levels of ASM were measured as follows. Specifically, a microliter mouse plasma, brain tissue and 3 μl of fibroblast samples were mixed with ASM activity buffer and stored at 37° C. 114 μl of ethanol was added to terminate the hydrolysis reaction, followed by centrifugation. 30 μl of the supernatant was transferred to a glass vial, of which 5 μl was applied to the UPLC system. The ASM concentration levels were quantified by comparison with Bodipy (aminoacetaldehyde) conjugated with sphingomyelin and ceramide. Extraction and quantification of the sphingomyelin and ceramide were performed by extracting lipids from known method samples and resuspending the dried lipid extract in 25 μl of 0.2% Igepal CA-630 (Sigma-Aldrich). Each lipid level was quantified using the UPLC system. In order to confirm the ASM inhibitory effect of the compound developed according to the present invention, the ASM inhibitory compound of the Chemical Formula 2, AMI and FTY720 were treated […] concentration, respectively, in the fibroblasts (PS1 fibroblasts) derived from Alzheimer's disease patients, followed by the measurement of the change of ASM activity.

Consider `CCCCCCCCCCCCn1cc(C(N)(CO)CO)nn1` [Chemical Formula 2, 2-amino-2-(1-dodecyl-1H-1,2,3-triazol-4-yl)propane-1,3-diol], for which, in the experiment with APP/PS1 mice [1], the “amyloid-β deposition compared with mice treated with AMI” value is recorded as “more remarkably reduced”, the Aβ40 deposition result is given as “significantly lower”, the Aβ42 deposition entry is given as “significantly lower” and the “fibrillary Aβ deposition (thioflavin S)” value is recorded as “significantly lower”. In addition, the “memory in the fear conditioning test (contextual and tone tasks)” value with APP/PS1 mice [2] is reported as “effect of improving the memory”. Moreover, the “ASM inhibitory effect compared with the other substances (AMI, FTY720)” value in experiment [3] (PS1 fibroblasts) is “more remarkably effective in inhibiting ASM activity than the other substances”. Also, the “change of ASM activity” value in experiment [3] was “markedly reduced”.

In the case of `CN(C)CCC=C1c2ccccc2CCc2ccccc21` [AMI, amitriptyline, reference compound], in the experiment on APP/PS1 mice [1], the Aβ40 deposition result is recorded as “significantly lower”, the Aβ42 deposition entry was “significantly lower” and the “fibrillary Aβ deposition (thioflavin S)” value is “significantly lower”. Further, in experiment [3], the “change of ASM activity” value is given as “markedly reduced”.

The record behind these values is US9724334B1, “Method for treating a neurodegenerative disease or depression comprising administering derivatives of 2-amino-2-(1-dodecyl-1H-1,2,3-triazol-4-yl)propane-1,3-diol” (Kyungpook National University Industry-Academic Cooperation …, priority 2016, dated 2017).
